Series [1] can be described thus: Compound cytotoxicity (CC50), XTT-based colorimetric assay. The class given is cell-based. As to conditions: human; uninfected MT2 cells, day 4, XTT assay. As for the experimental part: Compound cytotoxicity and the corresponding CC50 values were determined using the same protocol as described in the antiviral assay except that uninfected cells were used. Cytotoxicity was assessed on day 4 in uninfected MT2 cells by using a XTT (2,3-bis[2-Methoxy-4-nitro-5-sulfophenyl]-2H-tetrazolium-5-carboxyanilide inner salt)-based colorimetric assay (Sigma-Aldrich, St Louis, Mo.).
(In general: Formazan colour is commonly taken as a measure of viable cells.)

Series [2] has as its system recombinant NL4-3 virus (nef section replaced with Renilla luciferase gene) in MT-2 cells. Put plainly: whole plant or invertebrate. The class given is cell-based, HIV. From the text: A recombinant NL4-3 proviral clone, in which a section of the nef gene was replaced with the Renilla luciferase gene, was used to make the reference virus used in these studies.
Supernatent was harvested after 2-3 days and the amount of virus present was titered in MT-2 cells using luciferase enzyme activity as a marker by measuring luciferase enzyme activity. Luciferase was quantitated using the EnduRen Live Cell Substrate from Promega (Madison, Wis.). Antiviral activities of compounds toward the recombinant virus were quantified by measuring luciferase activity in MT-2 cells infected for 4-5 days with the recombinant virus in the presence of serial dilutions of the compound.

[3] abbreviates: NL43, luciferase activity in MT-2 cells infected 4-5 days with recombinant NL4-3 virus, read-out: Activity.
The mark [4] stands for this setting: NL43, luciferase activity in MT-2 cells infected 4-5 days with recombinant NL4-3 virus, read-out: EC50.

pEC50: −log10 of the molar value. Where a name gives a salt, the structure may show the parent alone. Read-outs that look alike come from different tables or passages of the source. Bounds are passed on as bounds.

Our source for the CC50 and EC50 values is US9855230B2 (ViiV Healthcare UK (No. 5) Limited, priority 2014, dated 2018).

By CC50 is commonly meant the concentration that lowers cell viability or growth by half.

In series [1], `Cc1ccccc1S(=O)(=O)NC(=O)N[C@@H](Cc1cc(F)cc(F)c1)c1ncccc1-c1ccc2cn(C)nc2c1` [Example 119, (S)-N-((2-(3,5-difluorophenyl)-1-(3-(2-methyl-2H-indazol-6-yl)pyridin-2-yl)ethyl)carbamoyl)-2-methylbenzenesulfonamide, TFA] gave a CC50 at 4 day of 58000 nM. Besides, in series [2] (setting [3]), the pEC50 was 6.00 to 7.00.

Compound `Cc1ccccc1S(=O)(=O)NC(=O)N[C@@H](Cc1cc(F)cc(F)c1)c1ncccc1-c1cccc(CO)c1` [Example 121, (S)-N-((2-(3,5-difluorophenyl)-1-(3-(3-(hydroxymethyl)phenyl)pyridin-2-yl)ethyl)carbamoyl)-2-methylbenzenesulfonamide, TFA] displayed a CC50 at 4 day in series [1] greater than 100000 nM. Further, the pEC50 in series [2] (setting [3]) was 6.00 to 7.00.

In turn, `Cc1ccccc1S(=O)(=O)NC(=O)N[C@@H](Cc1ccccc1)c1nccn1-c1cccc(N2CCCC2)c1` [Example 68, (S)-2-methyl-N-((2-phenyl-1-(1-(3-(pyrrolidin-1-yl)phenyl)-1H-imidazol-2-yl)ethyl)carbamoyl)benzenesulfonamide] came in with a CC50 at 4 day in series [1] greater than 100000 nM. For the same compound, the pEC50 in series [2] (setting [3]) was 6.00 to 7.00.

As to `O=C(NC(Cc1cc(F)cc(F)c1)c1ncccc1Br)NS(=O)(=O)c1ccccc1Cl` (stereo in doubt) [Example 113, (S)-N-((1-(3-bromopyridin-2-yl)-2-(3,5-difluorophenyl)ethyl)carbamoyl)-2-chlorobenzenesulfonamide, TFA], the 50% cytotoxic concentration (CC50) at 4 day in series [1] was greater than 100000 nM. The pEC50 in series [2] (setting [3]) is less than 6.00.

`COC(=O)Nc1ccc(-n2ccnc2[C@H](Cc2ccccc2)NC(=O)NS(=O)(=O)C2CC2)cc1` [Example 53, (S)-methyl (4-(2-(1-(3-(cyclopropylsulfonyl)ureido)-2-phenylethyl)-1H-imidazol-1-yl)phenyl)carbamate] returned a CC50 at 4 day in series [1] greater than 100000 nM. Further, in series [2] (setting [3]), the pEC50 is 6.00 to 7.00.

In series [1], `COC(=O)Nc1ccc(-c2cccnc2[C@H](Cc2cc(F)cc(F)c2)NC(=O)NS(=O)(=O)c2ccccc2C)cc1` [Example 89, (S)-methyl (4-(2-(2-(3,5-difluorophenyl)-1-(3-(o-tolylsulfonyl)ureido)ethyl)pyridin-3-yl)phenyl)carbamate] registered a 50% cytotoxic concentration (CC50) at 4 day greater than 100000 nM. Further, in series [2] (NL43, read-out: Activity), the pEC50 is 6.00 to 7.00.

In series [1], `COC(=O)Nc1ccc(-c2cccnc2[C@@H](Cc2ccccc2)NC(=O)NS(=O)(=O)c2ccccc2Cl)cc1` [Example 111, (R)-methyl (4-(2-(1-(3-((2-chlorophenyl)sulfonyl)ureido)-2-phenylethyl)pyridin-3-yl)phenyl)carbamate, TFA] gave a half-maximal cytotoxic concentration (CC50) at 4 day of 82000 nM. The pEC50 was less than 6.00 in series [2] (setting [3]) and 4.52 in series [2] (setting [4]).

Compound `Cc1nc2cc(-n3ccnc3[C@H](Cc3ccccc3)NC(=O)NS(=O)(=O)c3ccccc3C)ccc2s1` [Example 72, (S)-2-methyl-N-((1-(1-(2-methylbenzo[d]thiazol-5-yl)-1H-imidazol-2-yl)-2-phenylethyl)carbamoyl)benzenesulfonamide] displayed a CC50 at 4 day in series [1] greater than 100000 nM. For the same compound, the pEC50 in series [2] (setting [3]) is greater than 7.00; in series [2] (setting [4]) it was 7.30.

In series [1], `COc1ccc(-c2cccnc2[C@H](Cc2cc(F)cc(F)c2)NC(=O)NS(=O)(=O)c2ccccc2C)cc1` [Example 96, (S)-N-((2-(3,5-difluorophenyl)-1-(3-(4-methoxyphenyl)pyridin-2-yl)ethyl)carbamoyl)-2-methylbenzenesulfonamide, TFA] returned a CC50 at 4 day greater than 33000 nM. For the same compound, the figures for the pEC50 in series [2] (setting [3]) and in series [2] (setting [4]) were 6.00 to 7.00 and 6.23, respectively.

`Cc1ccccc1S(=O)(=O)NC(=O)N[C@@H](Cc1ccccc1)c1nccn1-c1ccc2c(c1)OCCO2` [Example 22]: in series [1], the CC50 at 4 day was greater than 100000 nM. Moreover, the pEC50 in series [2] (setting [3]) was 6.00 to 7.00.

`COc1ccc(-c2c(C(Cc3ccccc3)NC(=O)NS(=O)(=O)c3ccccc3C)nnn2C)cc1` (racemic) [Example 87, (rac)-N-((1-(5-(4-methoxyphenyl)-1-methyl-1H-1,2,3-triazol-4-yl)-2-phenylethyl)carbamoyl)-2-methylbenzenesulfonamide] yielded a CC50 at 4 day in series [1] greater than 100000 nM. Besides, the figures for the pEC50 in series [2] (setting [3]) and in series [2] (setting [4]) were 6.00 to 7.00 and 6.66, respectively.

In series [1], `Cc1ccccc1S(=O)(=O)NC(=O)N[C@@H](Cc1ccccc1)c1nccn1-c1ccc(Cl)cc1` [Example 14, (S)-N-((1-(1-(4-chlorophenyl)-1H-imidazol-2-yl)-2-phenylethyl)carbamoyl)-2-methylbenzenesulfonamide] showed a 50% cytotoxic concentration (CC50) at 4 day greater than 100000 nM. The pEC50 in series [2] (setting [3]) is 6.00 to 7.00.

The compound `COC(=O)Nc1ccc(-n2ccnc2[C@H](Cc2ccccc2)NC(=O)NS(=O)(=O)c2ccc(C)s2)cc1` [Example 46, (S)-methyl (4-(2-(1-(3-((5-methylthiophen-2-yl)sulfonyl)ureido)-2-phenylethyl)-1H-imidazol-1-yl)phenyl)carbamate] had a CC50 at 4 day in series [1] greater than 100000 nM. For the same compound, in series [2] (setting [3]), the pEC50 was 6.00 to 7.00.

In series [1], `COc1ccc(-c2cccnc2C(Cc2cc(F)cc(F)c2)NC(=O)NS(=O)(=O)c2ccccc2Cl)cc1` (stereo in doubt) [Example 114, (S)-2-chloro-N-((2-(3,5-difluorophenyl)-1-(3-(4-methoxyphenyl)pyridin-2-yl)ethyl)carbamoyl)benzenesulfonamide, TFA] displayed a CC50 at 4 day greater than 100000 nM. The pEC50 in series [2] (setting [3]) is less than 6.00; in series [2] (setting [4]) it was 4.46.

As to `COc1ccc(-n2ccnc2C(Cc2cc(F)cc(F)c2)NC(=O)NS(=O)(=O)c2ccccc2F)cc1` (racemic) [Example 84, (rac)-N-((2-(3,5-difluorophenyl)-1-(1-(4-methoxyphenyl)-1H-imidazol-2-yl)ethyl)carbamoyl)-2-fluorobenzenesulfonamide], the cytotoxic concentration (CC50) at 4 day in series [1] was greater than 100000 nM. For the same compound, the pEC50 in series [2] (setting [3]) was 6.00 to 7.00; in series [2] (setting [4]), 6.16.

In series [1], `Cc1cc(-c2cccnc2[C@@H](Cc2cc(F)cc(F)c2)NC(=O)NS(=O)(=O)c2ccccc2Cl)c(C)s1` [Example 104, (R)-2-chloro-N-((2-(3,5-difluorophenyl)-1-(3-(2,5-dimethylthiophen-3-yl)pyridin-2-yl)ethyl)carbamoyl)benzenesulfonamide, TFA] had a CC50 at 4 day greater than 33000 nM. The pEC50 in series [2] (setting [3]) was less than 6.00.

In the case of `Cc1ccccc1S(=O)(=O)NC(=O)N[C@@H](Cc1ccccc1)c1nccn1-c1ccc([N+](=O)[O-])cc1` [Example 33, (S)-2-methyl-N-((1-(1-(4-nitrophenyl)-1H-imidazol-2-yl)-2-phenylethyl)carbamoyl)benzenesulfonamide], in series [1], the CC50 at 4 day was greater than 100000 nM. In addition, the pEC50 in series [2] (setting [3]) is 6.00 to 7.00; in series [2] (setting [4]) it was 6.72.

Turning to `Cc1ccccc1S(=O)(=O)NC(=O)N[C@@H](Cc1ccccc1)c1nccn1-c1ccc(-c2ccoc2)cc1` [Example 59, (S)-N-((1-(1-(4-(furan-3-yl)phenyl)-1H-imidazol-2-yl)-2-phenylethyl)carbamoyl)-2-methylbenzenesulfonamide], the CC50 at 4 day in series [1] is greater than 33000 nM. For the same compound, the pEC50 in series [2] (setting [3]) is greater than 7.00.

Regarding `Cc1ccccc1S(=O)(=O)NC(=O)N[C@@H](Cc1ccccc1)c1nccn1-c1ccc(N)cc1` [Example 42, (S)-N-((1-(1-(4-aminophenyl)-1H-imidazol-2-yl)-2-phenylethyl)carbamoyl)-2-methylbenzenesulfonamide], the CC50 at 4 day in series [1] was greater than 100000 nM. In addition, the pEC50 in series [2] (setting [3]) was greater than 7.00; in series [2] (setting [4]), 7.40.

As to `Cc1ccccc1S(=O)(=O)NC(=O)N[C@@H](Cc1ccccc1)c1nccn1-c1ccc(-c2ccsc2)cc1` [Example 60, (S)-2-methyl-N-((2-phenyl-1-(1-(4-(thiophen-3-yl)phenyl)-1H-imidazol-2-yl)ethyl)carbamoyl)benzenesulfonamide], the CC50 at 4 day in series [1] was greater than 100000 nM. In addition, the pEC50 was greater than 7.00 in series [2] (setting [3]) and 7.52 in series [2] (setting [4]).

Turning to `Cc1ccccc1S(=O)(=O)NC(=O)N[C@@H](Cc1ccccc1)c1nccn1-c1ccc(OCc2ccccc2)cc1` [Example 30, (S)-N-((1-(1-(4-(benzyloxy)phenyl)-1H-imidazol-2-yl)-2-phenylethyl)carbamoyl)-2-methylbenzenesulfonamide], the CC50 at 4 day in series [1] is greater than 100000 nM. The pEC50 is 6.00 to 7.00 in series [2] (setting [3]) and 6.55 in series [2] (setting [4]).

With `COc1ccc(-n2ccnc2[C@H](Cc2ccccc2)NC(=O)NS(=O)(=O)c2ccccc2C)cc1OC` [Example 10, (S)-N-((1-(1-(3,4-dimethoxyphenyl)-1H-imidazol-2-yl)-2-phenylethyl)carbamoyl)-2-methylbenzenesulfonamide], the CC50 at 4 day in series [1] was greater than 100000 nM. For the same compound, in series [2] (setting [3]), the pEC50 is greater than 7.00.

In series [1], `Cc1nc2cc(-n3ccnc3[C@H](Cc3ccccc3)NC(=O)NS(=O)(=O)c3ccccc3F)ccc2s1` [Example 73, (S)-2-fluoro-N-((1-(1-(2-methylbenzo[d]thiazol-5-yl)-1H-imidazol-2-yl)-2-phenylethyl)carbamoyl)benzenesulfonamide] yielded a CC50 at 4 day greater than 100000 nM. The pEC50 in series [2] (setting [3]) was 6.00 to 7.00.

`Cc1ccccc1S(=O)(=O)NC(=O)N[C@@H](Cc1ccccc1)c1nccn1-c1cccc(-n2cccc2)c1` [Example 4, (S)-N-((1-(1-(3-(1H-pyrrol-1-yl)phenyl)-1H-imidazol-2-yl)-2-phenylethyl)carbamoyl)-2-methyl-benzenesulfonamide] yielded a cytotoxic concentration (CC50) at 4 day in series [1] greater than 100000 nM. In addition, in series [2] (setting [3]), the pEC50 is less than 6.00.
